pIC50: −log10 of the molar value. “Also recorded” adds a separate entry of the source. Read-outs that look alike come from different tables or passages of the source.
Key:
CD4+ T cells [1] = assay: Example 5: surface expression of activation markers CD69 and CD25, flow cytometry; type: cell-based, human; details: 48 hours
Protocol: (§1) Freshly isolated PBMCs or CD4^+ T cells were stained for viability, using the fixable viability dye Zombie violet (1:50, Biolegend) according to the manufacturer's recommendation. Surface staining was performed with the following antibodies at 1:100 dilutions: CD3-PE-Cy7, CD4-APC-Cy7, CD69-FITC, CD25-PE (all 1:100, Biolegend), and Glut-1-Ax647 (BD Bioscience, 566580) in staining buffer for 20 min on ice and cells were fixed in 1% PFA-containing PBS. All flow analysis was performed on the LSRII (BD Biosciences) using FlowJo software (v.10.4.2). Color compensations were performed using single-stained samples for each of the fluorochromes used. Data were analyzed using FlowJo software (TreeStar, San Carlos, Calif.).

[2] = tested on: patient-derived CD4+ T cells; details: as shown in PCT/US2016/64614; cited from earlier work
CD4+ T cells [3] = assay: Example 5: cytokines release assay (V-PLEX pro-inflammatory panel); type: cell-based, human; details: 48 hours; culture supernatant of CD4+ T cells
Protocol: Supernatant was collected from the treated cell cultures described above and stored at −80° C. for later analysis. Supernatant cytokine levels were determined using a V-PLEX Proinflammatory Panel 1 (human) Kit (#K15049D-1) and a V-PLEX IL-17A Gen. B (human) (#K151WMD) from Meso Scale Discovery, following the manufacturer's protocol. The assay was done on undiluted supernatant samples in order to increase the sensitivity of the assay.

CD4+ T cells [4] = assay: Example 5: CD4+ T cell viability, Cell Titer Blue assay; type: cell-based, human; details: 48 hours; for CD4+ T-cell viability: SB-216763 and tideglusib 10/100/1000 nM, bryostatin-1 10 nM
Protocol: 25 μl from each well/treatment were incubated with Cell Titer Blue reagent (Promega) for 3 to 4 hours at 37° C. The assay is based on the ability of living cells to convert a redox dye (resazurin) into a fluorescent end product (resorufin). Colorimetric analysis of treated cells was done with a Perkin Elmer EnSpire 2300 Multimode plate reader set to detect fluorescence (Ex:579 nm/Em:584 nm).

[5] = tested on: latent HIV-GFP reporter virus in resting CD4+ T cells from human tonsil; assay: Example 6: lymphoid tissue model of HIV latency, HIV-GFP reporter, flow cytometry; type: cell-based; details: 48 hours; for latency reversal by first-generation LRAs: bryostatin-1 10 nM, JQ1 100 nM, panobinostat 50 nM
[6] = tested on: latent HIV-1 in blood CD4+ T cells from infected individuals on suppressive ART; type: cell-based
tonsil CD4+ T cells = assay: Example 6: cell viability in tonsil CD4+ T cell cultures, Cell-Titer Blue; details: SB216763 10-1,000 nM, PMA 200 nM, panobinostat 50 nM; 48 hours
CD4+ T cells [7] = assay: Example 5: GLUT1 surface expression, flow cytometry; type: cell-based, human; details: 2 or 24 hours; 1 μM tideglusib; CD4+ T cells of three HIV-negative donors
Protocol: as §1
Changes to the metabolism of resting CD4^+ T-cells by tideglusib were studied. […] […].

NF-κB (p65) = assay: Example 5: NF-κB p65 nuclear translocation, western blot of nuclear extracts; type: cell-based, human; details: 250 nM inhibitor with 1 μM tideglusib
GSK-3 = details: cited from earlier work
[8] = tested on: latent HIV in CD4+ T cells of HIV-infected patients on suppressive anti-retroviral therapy; assay: Example 7: reversal of HIV latency in patient CD4+ T cells, extracellular viral RNA by digital droplet PCR
CD4+ T cells [9] = assay: Example 5: lactate production analysis; type: cell-based, human
Protocol: Subsequently, media of the treated samples were tested for production of L-lactated using a Glycolysis Cell-Based Assay Kit (Cayman Chemical). This test measures the quantity of formazan, an artificial chromogenic dye that results from the reduction of tetrazolium salts in the presence of NADH in the culture media. Colored formazan absorbs between 490 and 520 nm and can be detected by a plate reader. Since lactate dehydrogenase catalyzes the reaction between NAD+ and lactate, yielding pyruvate and NADH, which directly reduces the tetrazolium salt, the quantity of formazan produced is proportional to the quantity of L-lactate in the culture medium, and is thus an indirect measurement of glycolysis. In order to determine specific L-Lactate concentration, a standard curve was obtained analyzing absorbance of known concentration of L-lactate as indicated in the manufacturer's protocol.

patient CD4+ T cells = details: human, 48 h
[10] = tested on: patient-derived CD4+ T cells; details: as shown in PCT/US2016/64614; cited from earlier work; remark: listed apart in the source
CD8+ T cells = assay: Example 5: CD8 T-cell viability and cytotoxic effector functions; type: cell-based, human; details: 48 hours; 50 nM
Protocol: After drug treatment, human PBMCs were cultured in complete RPMI in the presence of CD107a-BV650 (1:50, 328637, BioLegend) or CD107a-FITC antibodies (1:50, 555800, BD Bioscience) and PMA/ionomycin (50 ng/ml and 1 uM) dor 3.5 hours, adding Brefeldin A and Monensin (eBioscience) for the last hour. Cells were subsequently stained for viability using the viability dyes eFluor 506, (eBioscience) according to the provided protocol. After surface marker staining with the following antibodies (all at 1:100 dilution): CD3-APC-H7 (560176; BD Biosciences), CD8-V450 (560347; BD Biosciences), CD45RA-APC (17-0458; eBioscience), and CCR7-PE-Cy7 (557648; BD Biosciences), cells were permeabilized and fixed using the Foxp3/Transcription Factor Fixation/Permeabilization Concentrate and Diluent kit (eBioscience). Intracellular staining was performed with IFN-γ-PerCP-Cy5.5 antibody (1:100, 560704, BD Bioscience) in FOXP3 perm/wash buffer for 1 h at 4° C. After washing and fixation of the cells in 1% paraformaldehyde/PBS, cells were analyzed by flow cytometry. Final data stems from having gated on CD8hi- and CD8lo-expressing T cells.

NK cells = assay: Example 5: NK cell viability and cytotoxic effector functions; type: cell-based, human; details: 48 hours; 50 nM
Protocol: Density centrifugation using a Ficoll-Hypaqua gradient was performed to purify PBMCs from continuous-flow centrifugation leukapheresis product. Subsequently, cells were plated in 96-well U-bottom plated in complete RPMI, which was supplemented with 10 ng/ml recombinant IL-15 (R&D systems), treated with LRAs or vehicle controls (DMSO) and incubated at 37° C., 5% CO2 for 48 h. To assay NK cell functionality, cells were analyzed by flow cytometry. Briefly, 1×10^6 cells/200 ul were stained with FITC anti-CD107 antibodies (1:50, BD Biosciences), mixed with 1×10^5 K562 cells and incubated at 37° C., 5% CO2 for 1 h. Then, in order to enhance intracellular cytokine staining, protein transport was blocked with Brefeldin A (Sigma-Aldrich) and golgi stop (BD Biosciences) according to the manufacturer instructions and the cells were incubated at 37° C., 5% CO2 for another 5 h. Afterwards, cells were spun down (5 min, 330×g, RT), the supernatant was removed and the cells were stained using Zombie violet (1:50, Biolegend) according to the manufacturer protocol. Subsequently, cells were stained for surface proteins staining with the following antibodies: APC/Cy7 anti CD3 (1:100, Biolegend), APC anti CD14 (1:100, Biolegend), APC anti CD19 (1:100, Biolegend), PE/Cy7 anti CD56 (1:100, BD Biosciences), Alexa Fluor 700 anti CD16 (1:100, Biolegend), PE anti CD7 (1:50, Thermo Fisher Scientific) for 15 min at room temperature. Next, cells were permeabilized and fixed using the Foxp3/Transcription Factor Fixation/Permeabilization Concentrate and Diluent kit (eBioscience) and stained intracellularly with PerCP/Cy5 anti IFN-γ (1:50, BD Bioscience) in FOXP3 perm/wash buffer for 1 h at 4° C. Finally, cells were washed and fixed in 1% paraformaldehyde/PBS, and subjected to flow cytometry analysis on a LSRII (BD Biosciences). Data were obtained using FlowJo software (Treestar). Samples were gated for singlets, live, CD3 negative, CD14/CD19 negative and CD7 positive cells as previously described (York, Milush). CD16high/CD56dim, CD16dim/CD56high cells were considered for analysis of IFN-γ and CD107a positivity. All gates were defined, based on fluorescence minus one (FMO) samples.

[11] = 10 nM, 48 hours, relative to untreated control

CCC/C=C/C=C/C(=O)O[C@H]1/C(=C/C(=O)OC)C[C@H]2C[C@H]([C@@H](C)O)OC(=O)C[C@H](O)C[C@@H]3C[C@H](OC(C)=O)C(C)(C)[C@](O)(C[C@@H]4C/C(=C/C(=O)OC)C[C@H](/C=C/C(C)(C)[C@]1(O)O2)O4)O3 [bryostatin-1]
CD69 surface expression (CD4+ T cells [1]; 10 nM): markedly increased
activation marker expression with known latency-reversing agent [2]: increase in activation marker expression
production and release of pro-inflammatory cytokines (CD4+ T cells [3]): release of IFN-γ, IL-6, IL-13
CD4+ T-cell viability (CD4+ T cells [4]): minimal decrease
latency reversal by first-generation LRAs [5]: only minimal latency reversal
virus-associated HIV-1 mRNA, mean fold-change [6, 11]: 574.4 fold
virus-associated HIV-1 mRNA, median value [6, 11]: 5.086 fold

CCCCCCCCCCCCCC(=O)O[C@@H]1[C@@H](C)[C@@]2(O)[C@@H](C=C(CO)C[C@]3(O)C(=O)C(C)=C[C@@H]23)[C@@H]2C(C)(C)[C@]12OC(C)=O [PMA, phorbol 12-myristic13-acetate]
cell viability relative to untreated cells (tonsil CD4+ T cells): clear toxicity; also recorded: toxicity was observed

Cc1sc2c(c1C)C(c1ccc(Cl)cc1)=N[C@@H](CC(=O)OC(C)(C)C)c1nnc(C)n1-2 [JQ-1]
latency reversal by first-generation LRAs [5]: only minimal latency reversal

CC(C)n1nc(-c2cc3cc(O)ccc3[nH]2)c2c(N)ncnc21 [PP242]
GLUT1 surface expression over the untreated control (CD4+ T cells [7]): did not significantly alter expression of GLUT1
effect of co-treatment on tideglusib-mediated p65 nuclear translocation (NF-κB (p65)): less reduction in nuclear translocation

Cn1cc(C2=C(c3ccc(Cl)cc3Cl)C(=O)NC2=O)c2ccccc21 [SB-216763, 3-(2,4-Dichlorophenyl)-4-(1-methyl-1H-indol-3-yl)-1H-pyrrole-2,5-dione]
surface expression of the activation markers CD69 or CD25 (CD4+ T cells [1]): no increase
production and release of pro-inflammatory cytokines (CD4+ T cells [3]): does not induce T cell activation or cytokine production
CD4+ T-cell viability (CD4+ T cells [4]): does not reduce viability
induction of the GFP reporter over unstimulated ([5]; doses between 100-1000 nM): 90 fold
latency reversing activity, in words ([8]; at equivalent doses): comparable activity
subjects that did not respond ([8]; highest dose): 3 of 14
L-lactate in the culture media (CD4+ T cells [9]; 24 hours of treatment): did not result in an increase of L-lactate
toxicity based on cell-titer blue testing (patient CD4+ T cells): Neither tideglusib nor SB216763 induced toxicity

Cc1[nH]c2ccccc2c1CCNCc1ccc(/C=C/C(=O)NO)cc1 [panobinostat]
toxicity of known latency-reversing agent [10]: highly toxic
cell death of CD4+ T cells (CD4+ T cells [4]; 50 nM): ~50%
reduction of total CD8+ T cells (CD8+ T cells): approximately 40%
reduction of total NK cells (NK cells): approximately 60%

CCOC(=O)C1=C(N)Oc2ccc(Cl)cc2C1C(C#N)C(=O)OCC (stereo not drawn) [SC79, 2-amino-6-chloro-α-cyano-3-(ethoxycarbonyl)-4H-1-benzopyran-4-acetic acid ethyl ester]
release of virions in the culture supernatant ([6]; 48 hours, CD4+ T cells from five HIV-positive participants, SC79 10/100/1000 nM): increased release of virions

O=CC[C@@H](O)[C@H](O)[C@H](O)CO [2-DG, 2-deoxy-D-glucose]
L-lactate production in treated and untreated samples (CD4+ T cells [9]; 50 mM, 24 hours): dramatically reduced L-lactate production
